Experiment [1] has as its target T1, creatine kinase (CK) in human serum (Homo sapiens, UniProt P06732).
T1 construct: Five fresh human serum samples were used; from tissue; host or cells: fresh human serum
The experiment can be described thus: Inhibitory effect of oxidized products of SH compounds on CK activity (HK/G6PDH UV method, NAC 26 mM as reactivator). It counts as biochemical. Particulars: for CK activity value: NAC 26 mM, 37° C. How it is done: Investigation on the inhibitory effect of oxidized products of SH compounds on CK activity
Thus, oxidized products of the SH compounds, respectively, were obtained.
NAC (26 mM) as CK reactivator, each 5 mM of SH compound oxidized product obtained above, 2.6 mM of ADP, 3.9 u/ml of HK (available from Oriental Yeast Co., Ltd.), 8.0 u/ml of G6PDH (available from Oriental Yeast Co., Ltd.), 2.6 mM of NADP, 21 mM of glucose, 10 mM of magnesium acetate, 6.5 mM of AMP, 0.013 mM of APSA, 0.1% (w/v) of sodium azide and 2 mM of EDTA-2Na were dissolved in 128 mM imidazole-acetate buffer (pH 6.7). The thus obtained solutions were adjusted to pH 6.7 with sodium hydroxide to obtain enzyme solutions.
An enzyme solution containing no SH compound oxidized product was prepared as a control standard solution.
Five fresh human serum samples were used.
To 8 μl of each sample was added 320 μl of each enzyme solution, followed by preincubation for 5 minutes. Then, 80 μl of the substrate solution was added to initiate the reaction and the change of absorbance per minute was measured for 3 minutes from 2 minutes after the addition of the substrate solution. The CK activity value was calculated from the molecular extinction coefficient of the NADPH produced.
As a measuring apparatus, an Autoanalyzer Hitachi Model 7150 was used, and the measurement was carried out at 37° C. by use of dual wavelength (λ1 =405 nm, λ2 =340 nm).
Tables 2 and 3 show the CK activity values of the 5 samples in each case and the average thereof.

Another experiment has as its system CK activity. Particulars: Scand. J. Clin. Lab. Invest. 39, 737-742 (1979); cited from earlier work.

T1 sequence (P06732 whole entry): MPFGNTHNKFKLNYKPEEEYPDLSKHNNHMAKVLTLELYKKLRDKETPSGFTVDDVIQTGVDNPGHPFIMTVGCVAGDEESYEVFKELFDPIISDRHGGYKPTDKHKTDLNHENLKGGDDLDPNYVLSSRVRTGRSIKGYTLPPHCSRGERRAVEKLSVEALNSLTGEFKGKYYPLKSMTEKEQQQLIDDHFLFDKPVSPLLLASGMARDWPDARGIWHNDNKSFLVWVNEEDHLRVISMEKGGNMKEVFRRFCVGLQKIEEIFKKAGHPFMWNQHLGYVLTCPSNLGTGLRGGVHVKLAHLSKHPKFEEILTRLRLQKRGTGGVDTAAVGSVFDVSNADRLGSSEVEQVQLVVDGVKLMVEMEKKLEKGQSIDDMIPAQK

As for `CC(=O)N[C@@H](CSSC[C@H](NC(C)=O)C(=O)O)C(=O)O` [NAC oxidized product], the CK activity value came out at 124 IU/l in experiment [1] (Sample 1 (fresh human serum), 5 mM SH compound oxidized product); 342 IU/l in experiment [1] (Sample 2, 5 mM SH compound oxidized product); 87 IU/l in experiment [1] (Sample 3, 5 mM SH compound oxidized product); 272 IU/l in experiment [1] (Sample 4, 5 mM SH compound oxidized product); 80 IU/l in experiment [1] (Sample 5, 5 mM SH compound oxidized product). Further, the “CK activity value, Average” value in experiment [1] (average of 5 samples, 5 mM SH compound oxidized product) stood at 181 IU/l. In addition, in experiment [1] (average with enzyme solution containing no SH compound oxidized product = 100%, 5 mM oxidized product, read-out: CK activity, relative value), the activity at 5000 µM came out at 80.1%. Moreover, the “effect on CK activity” value with CK activity was “inhibits CK activity”.

Values taken from patent US5716797A, “Stable two-part reagent for the measurement of creatine kinase activity” (Wako Pure Chemical Industries, Ltd., priority 1995, dated 1998).
